Results published in ChEMBL document CHEMBL1131690, “Synthesis and evaluation of anthranilic acid-based transthyretin amyloid fibril inhibitors” (Bioorg Med Chem Lett, 1999).

How the values were obtained:
[1] = Binding parameter for complete inhibition of Wild type Transthyretin amyloid fibril formation at pH 4.4 with negative cooperativity by the compound at a concentration of (10.8)
[2] = Concentration completly inhibiting Wild type TTR amyloid fibril formation at pH 4.4; format: functional

With `O=C(O)c1ccccc1Nc1cccc(C(F)(F)F)c1` the KD1 [1] was 30.1 nM and the KD2 [1] was 255 nM.
Molecule `O=C(O)c1cccc(Nc2ccccc2C(=O)O)c1` has a Concentration [2] of 7.6 µM.
